Entries after “also recorded” stand apart in the source; their conditions may differ.
Columns and labels:
CDKN2B-deficient SMCs = assay: Phagocytosis of CDKN2B-deficient SMCs by macrophages with anti-CD47 Ab; assay type: cell-based; conditions: FIG. 12
Excerpt: Implicating Cdkn2b in “efferocytosis”— the phagocytic clearance of apoptotic debris: an increase in the rate at which apoptotic debris was produced in this chronic disease model could not be observed (P=NS for TUNEL and Caspase assays at both Week 4 and Week 12). It was reasoned that loss of Cdkn2b might regulate the rate at which apoptotic debris is cleared in the developing atherosclerotic plaque. This process, known as “efferocytosis” (from the Greek meaning to carry the dead to the grave), was assessed with established in vitro flow cytometry-based co-culture phagocytosis assays.

CALR promoter = assay: CALR luciferase promoter reporter assay with TGF-β; assay type: cell-based, human; conditions: control-transfected HEK cells, TGFβ-1 0.5-10 ng/mL, 16 hours
Description: Calreticulin LightSwitch Promoter Reporter GoClones (RenSP, S721464), Empty vectors (S790005) and Cypridina TK Control constructs (pTK-Cluc, SN0322S) were obtained from SwitchGear Genomics (Menlo Park, Calif.) and transfected into HEK cells using Lipofectamine 2000 (Invitrogen). For knockdown assays, 5 pmol of anti-CDKN2B or control siRNA were co-transfected. For overexpression, CDKN2B (sc319536) and Rb expression plasmid (sc119971) and empty vector (pCMV6) were obtained from Origene and 100 ng of plasmid were co-transfected. Dual luciferase activity was measured with the LightSwitch Dual Assay System after 48 hours using a SpectraMax L luminometer (Molecular Devices), according to the manufacturer's instructions. In some experiments, media was changed to serum-free media after 24 hours of transfection. Studies were performed at baseline, and after the cells had been exposed to escalating doses of recombinant human TGFβ-1 (from Sigma, 0.5-10 ng/mL) for the final 16 hours prior to analysis. Relative luciferase activity (Renilla/Cypridina luciferase ratio) is expressed as the percentage change relative to the basal values obtained from control-transfected cells not exposed to TGF-β treatment.

CDKN2B = CDKN2B expression in untransfected HCASMC after exogenous TGF-β; assay type: cell-based, human; conditions: FIG. 9B
Description: Human coronary artery SMC (HCASMC, Lonza, Walkersville, Md., passage #3-6) were propagated in SmGM-2 growth media (Lonza) containing 5% FBS. Human THP-1 monocytic cells, human embryonic kidney (HEK-293) and RAW 264.7 macrophages (ATCC) were grown in DMEM-growth media containing 10% FBS. Primary vascular smooth muscle cells were harvested from the aortas of Cdkn2b^+/+ and Cdkn2b^−/− mice, as previously described. Primary activated macrophages were harvested from mice 72 hrs after intraperitoneal injection of 2 ml of 4% thioglycollate, as previously described. To induce growth arrest and the expression of differentiation genes, SMC were serum starved in basal media (SmBM) for 72 hours, according to conventional protocols.
PCR RNA was isolated from cell lysates using the miRNeasy Mini Kit (Qiagen, Valencia, Calif.) according to the manufacturer's protocol. RNA was isolated from the murine organ samples using the Trizol method (Invitrogen). RNA was quantified with the Nanodrop machine ([…], Santa Clara, Calif.) For quantitation of gene transcription, cDNA was generated with M-MuLV reverse transcriptase, and then amplified on the ABI PRISM 7900HT with commercially available TaqMan primers (Applied Biosystems, Foster City, Calif.) and normalized to 18S internal controls, as previously described. A list of the primers and probes used in these studies is provided in below.

For “Hu5F9-G4: humanized anti-CD47 mAb engineered by CDR grafting of mouse sequences into a human IgG4 framework”, the “increase in phagocytosis of SMCs by Mϕ's” value (CDKN2B-deficient SMCs; CDKN2B-deficient SMCs) was roughly 72% and the “phagocytosis of CDKN2B-deficient SMCs by macrophages” value (CDKN2B-deficient SMCs) was “enables macrophages to phagocytose”.

With “TGF-β: recombinant human TGFβ-1 (from Sigma)” the “CALR expression (promoter reporter activity)” value (CALR promoter) was “increased in response to TGF-β treatment in a dose-dependent manner; also recorded: increased by TGF-β in a dose-dependent manner” and the CDKN2B expression (CDKN2B) was “increased their expression of CDKN2B”.

From US10329354B2, “Modulation of efferocytosis pathways for treatment of atherosclerotic disease” (The Board of Trustees of the Leland Stanford Junior …, priority 2013, dated 2019)
